≈ marks a conversion by molar mass, not a printed value.
What was measured:
[1] = tested on: Staphylococcus aureus ATCC 29213; assay: MIC, growth inhibition in Mueller Hinton Broth; assay type: cell-based; conditions: ATCC29213, S. aureus ATCC 29213, Gram positive, read-out: Minimum Inhibitory Concentration S. aureus ATCC 29213
[2] = tested on: Escherichia coli ATCC 25922; assay: MIC, growth inhibition in Mueller Hinton Broth; assay type: cell-based; conditions: ATCC25922, E. coli ATCC 25922, Gram-negative, read-out: Minimum Inhibitory Concentration E. coli ATCC 25922
[3] = tested on: Staphylococcus aureus ZYABL 006; assay: MIC against fluoroquinolone resistant strain; assay type: cell-based; conditions: ZYABL006, quinolone resistant clinical strain, read-out: Minimum Inhibitory Concentration Staphylococcus aureus ZYABL 006
[4] = molecular target: Topoisomerase II (UniProt P20831); assay: Topoisomerase II inhibition, gel electrophoresis method; assay type: biochemical; conditions: 37° C. for 30 min, read-out: Invitro IC50 Topoisomerase II
Sequence of Topoisomerase II (P20831 whole entry): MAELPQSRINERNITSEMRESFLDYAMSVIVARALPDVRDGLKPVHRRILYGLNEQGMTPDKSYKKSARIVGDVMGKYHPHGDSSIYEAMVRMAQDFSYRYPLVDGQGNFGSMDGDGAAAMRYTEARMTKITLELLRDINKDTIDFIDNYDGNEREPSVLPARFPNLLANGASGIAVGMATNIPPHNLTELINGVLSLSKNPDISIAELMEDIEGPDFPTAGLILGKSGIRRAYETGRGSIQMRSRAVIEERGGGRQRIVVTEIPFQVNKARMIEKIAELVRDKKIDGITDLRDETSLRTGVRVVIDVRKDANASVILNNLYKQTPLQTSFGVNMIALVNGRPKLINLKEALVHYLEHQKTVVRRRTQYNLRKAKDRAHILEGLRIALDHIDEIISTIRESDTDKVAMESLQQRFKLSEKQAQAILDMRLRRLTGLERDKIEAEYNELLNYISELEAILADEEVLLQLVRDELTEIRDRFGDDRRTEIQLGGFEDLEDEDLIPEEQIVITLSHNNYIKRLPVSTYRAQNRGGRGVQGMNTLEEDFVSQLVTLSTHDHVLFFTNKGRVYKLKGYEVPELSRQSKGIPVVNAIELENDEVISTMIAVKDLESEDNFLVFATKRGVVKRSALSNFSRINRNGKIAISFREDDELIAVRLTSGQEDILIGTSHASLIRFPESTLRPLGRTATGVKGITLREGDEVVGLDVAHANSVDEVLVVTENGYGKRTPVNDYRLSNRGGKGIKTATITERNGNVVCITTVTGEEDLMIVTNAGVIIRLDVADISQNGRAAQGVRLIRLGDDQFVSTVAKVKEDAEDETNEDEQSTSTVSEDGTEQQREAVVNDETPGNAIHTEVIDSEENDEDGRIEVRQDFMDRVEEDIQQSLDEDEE
Procedure: (§1) Evaluation of Topoisomerase II/IV inhibition using gel electrophoresis method: Topoisomerase II/IV (1 unit, Inspiralis) was added to a reaction mixture of DNA (pHOT/kDNA, Topogen) and ATP in appropriate buffers following which different concentrations of the test compounds were added and incubated at 37° C. for 30 min. The reaction was terminated after 30 minutes by the addition of stop buffer. The resulting DNA (relaxed, supercoiled or decatanated) was extracted using chloroform: isoamyl alcohol mixture and was separated using 1% agarose gel electrophoresis. Gel was stained with ethidium bromide for 20 minutes, washed with distilled water and the images were captured for further analysis. The band Intensities from the image were measured using Image J software and the half-maximal […] inhibitory concentration was deduced using Graphpad Prism.

[5] = molecular target: T1, Topoisomerase IV (Escherichia coli, UniProt P0AFI2); assay: Topoisomerase IV inhibition, gel electrophoresis method; assay type: biochemical; conditions: 37° C. for 30 min, read-out: Invitro IC50 Topoisomerase IV
T1 construct: purchased Inspiralis
T1 sequence (P0AFI2 whole entry): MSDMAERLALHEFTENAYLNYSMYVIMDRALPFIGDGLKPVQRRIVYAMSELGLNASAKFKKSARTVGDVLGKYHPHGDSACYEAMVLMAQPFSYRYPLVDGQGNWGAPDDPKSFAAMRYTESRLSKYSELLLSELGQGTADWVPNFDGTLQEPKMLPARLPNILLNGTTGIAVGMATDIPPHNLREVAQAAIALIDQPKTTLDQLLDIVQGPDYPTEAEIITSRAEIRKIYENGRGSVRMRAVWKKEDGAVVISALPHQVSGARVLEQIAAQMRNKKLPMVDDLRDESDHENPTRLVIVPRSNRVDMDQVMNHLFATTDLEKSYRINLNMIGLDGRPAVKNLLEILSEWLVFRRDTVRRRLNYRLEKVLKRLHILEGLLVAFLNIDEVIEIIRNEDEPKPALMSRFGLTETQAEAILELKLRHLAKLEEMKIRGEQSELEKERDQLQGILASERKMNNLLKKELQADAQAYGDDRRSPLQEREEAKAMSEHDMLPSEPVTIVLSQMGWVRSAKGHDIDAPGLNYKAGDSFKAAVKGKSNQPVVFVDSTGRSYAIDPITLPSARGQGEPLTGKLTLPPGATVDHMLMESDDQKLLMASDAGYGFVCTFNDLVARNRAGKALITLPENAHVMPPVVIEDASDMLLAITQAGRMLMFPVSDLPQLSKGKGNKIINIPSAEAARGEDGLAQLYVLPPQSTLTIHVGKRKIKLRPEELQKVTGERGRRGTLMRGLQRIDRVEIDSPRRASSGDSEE
T1 sequence (P20083 whole entry, further chain): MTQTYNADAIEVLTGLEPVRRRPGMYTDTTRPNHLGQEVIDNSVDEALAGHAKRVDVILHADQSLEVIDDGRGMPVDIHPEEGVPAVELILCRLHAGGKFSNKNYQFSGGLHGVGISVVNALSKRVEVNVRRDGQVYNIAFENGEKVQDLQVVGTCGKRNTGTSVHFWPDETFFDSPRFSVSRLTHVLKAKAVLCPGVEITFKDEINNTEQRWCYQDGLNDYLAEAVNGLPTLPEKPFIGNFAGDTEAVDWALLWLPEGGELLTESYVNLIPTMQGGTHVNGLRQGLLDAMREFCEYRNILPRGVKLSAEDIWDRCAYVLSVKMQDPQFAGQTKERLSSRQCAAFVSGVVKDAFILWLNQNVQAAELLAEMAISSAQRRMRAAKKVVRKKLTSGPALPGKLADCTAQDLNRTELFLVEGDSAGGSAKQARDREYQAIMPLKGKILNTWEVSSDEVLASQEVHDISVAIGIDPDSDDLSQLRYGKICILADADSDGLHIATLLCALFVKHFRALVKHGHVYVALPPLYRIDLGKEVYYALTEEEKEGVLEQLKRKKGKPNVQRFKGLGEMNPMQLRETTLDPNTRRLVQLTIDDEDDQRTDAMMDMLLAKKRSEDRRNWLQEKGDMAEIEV
Procedure: as §1

[6] = molecular target: T2, hERG channel (Homo sapiens, UniProt Q12809); assay: hERG binding study, FluxOR potassium ion channel assay; assay type: cell-based; conditions: hERG CHO cells, thallium flux, 20 min incubation
T2 construct: expressed in transfected cells; host or cells: CHO cells
T2 sequence (Q12809 whole entry): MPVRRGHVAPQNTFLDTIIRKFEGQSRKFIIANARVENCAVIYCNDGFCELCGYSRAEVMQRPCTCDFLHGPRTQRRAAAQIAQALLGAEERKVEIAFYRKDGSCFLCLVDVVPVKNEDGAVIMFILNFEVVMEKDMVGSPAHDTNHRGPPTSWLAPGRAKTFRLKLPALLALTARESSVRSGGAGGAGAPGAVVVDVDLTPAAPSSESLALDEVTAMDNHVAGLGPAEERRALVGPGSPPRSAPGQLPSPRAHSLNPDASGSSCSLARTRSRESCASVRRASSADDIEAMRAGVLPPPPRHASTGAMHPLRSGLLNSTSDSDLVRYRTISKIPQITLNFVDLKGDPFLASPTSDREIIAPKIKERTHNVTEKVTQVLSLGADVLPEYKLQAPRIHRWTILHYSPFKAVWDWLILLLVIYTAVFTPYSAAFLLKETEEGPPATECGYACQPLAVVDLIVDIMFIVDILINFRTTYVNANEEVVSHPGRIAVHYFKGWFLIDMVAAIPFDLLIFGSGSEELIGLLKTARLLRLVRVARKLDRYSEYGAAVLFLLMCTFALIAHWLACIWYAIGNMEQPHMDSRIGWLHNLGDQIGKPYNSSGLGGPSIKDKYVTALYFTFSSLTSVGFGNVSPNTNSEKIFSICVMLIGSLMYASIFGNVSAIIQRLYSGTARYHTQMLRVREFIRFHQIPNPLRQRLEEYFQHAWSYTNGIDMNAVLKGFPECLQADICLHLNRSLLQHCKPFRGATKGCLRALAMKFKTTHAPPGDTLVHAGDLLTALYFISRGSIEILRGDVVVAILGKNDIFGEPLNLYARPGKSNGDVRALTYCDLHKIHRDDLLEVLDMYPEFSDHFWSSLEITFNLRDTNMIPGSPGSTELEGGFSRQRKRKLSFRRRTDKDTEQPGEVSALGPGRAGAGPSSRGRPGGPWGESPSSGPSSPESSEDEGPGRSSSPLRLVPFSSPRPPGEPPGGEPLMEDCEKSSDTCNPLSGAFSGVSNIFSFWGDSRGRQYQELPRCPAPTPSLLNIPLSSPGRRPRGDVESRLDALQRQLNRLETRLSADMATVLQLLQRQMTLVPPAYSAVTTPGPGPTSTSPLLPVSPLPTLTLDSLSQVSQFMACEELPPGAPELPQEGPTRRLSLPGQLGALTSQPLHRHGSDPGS
Procedure: FluxOR™ Potassium Ion Channel Assay
Thallium flows down its concentration gradient into the cells, and channel activity is detected with indicator dye that increases in cytosolic fluorescence. Stably expressing hERG CHO cells are checked with test compounds for hERG liability. Compounds incubated for 20 min with cells then stimulation buffer was added and fluorescence measured on TECAN multimode reader. If test compound is inhibiting hERG channel then it will not allow the thallium to flows down in the cells. Vehicle control is considered as total hERG response while treatment with Astemizole as a total hERG channel inhibition and based on that test compounds hERG channel inhibition calculated.

[7] = tested on: Mycobacterium tuberculosis H37Rv; assay: Mycobacterium tuberculosis H37Rv inhibition assay (MIC); assay type: cell-based
Procedure: Mycobacterium tuberculosis H37Rv Inhibition Assay
The measurement of the minimum inhibitory concentration (MIC) for each tested compound was performed in 96 wells flat bottom, polystyrene microtiter plates following standard protocol.

[8] = tested on: Staphylococcus aureus (BAA38); assay: MIC testing against broad panel of strains; conditions: BAA38, read-out: MIC Staphylococcus aureus (BAA38)
Procedure: (§2) The ability of the invention compounds disclosed herein to achieve an antibacterial effect may be evaluated with regard to their ability to inhibit the growth of bacterial species like Escherichia coli ATCC 25922, Staphylococcus aureus ATCC 29213 using an assay based on the following Minimum Inhibitory Concentration (MIC) protocol:
(§3) The test bacteria are grown in Muellor Hinton Broth (M1657)—MHB, 25 grams of the powder is dissolved in 1000 ml distilled water and sterilized by autoclaving at 15 lbs pressure (121° C.) for 20 minutes. The medium sterility is checked by incubating at 37° C. for a period of 48 h.
(§4) Bacterial cultures that are stored as glycerol stocks at −80° C. are sub cultured on LB agar plates to obtain isolated colonies. A single colony of each strain is cultured in LB broth. The cultures are incubated at 37° C., 200 rpm till they reach an optical density (OD at 600 nm) of 0.8 to 1. This log phase culture is diluted in LB broth to a cell number of 5-8*10^5 CFU/mL to be used as inoculum for MIC experiments.
(§5) Test compounds were diluted in their respective solvents and added to a final concentration ranging from 16 to 0.12 μg/ml in 150 μl MHB in 96 well plates.
(§6) Controls to monitor the effects of DMSO and media sterility are included. […] The following morning, the plates are read using a Spectrophotometer at 600 nm wavelength.

[9] = tested on: Staphylococcus pneumonia (ATCC700906); assay: MIC testing against broad panel of strains; conditions: ATCC700906, read-out: MIC Staphylococcus pneumonia (ATCC700906)
Procedure: as §2, §3, §4, §5, §6

[10] = tested on: Enterococcus faecalis (ATCC700802); assay: MIC testing against broad panel of strains; conditions: ATCC700802, read-out: MIC Enterococcus faecalis (ATCC700802)
Procedure: as §2, §3, §4, §5, §6

[11] = tested on: Escherichia coli (ATCC10536); assay: MIC testing against broad panel of strains; conditions: ATCC10536, read-out: MIC Escherichia coli (ATCC10536)
Procedure: as §2, §3, §4, §5, §6

[12] = tested on: Acinetobacter baumannii (BAA1605); assay: MIC testing against broad panel of strains; conditions: BAA1605, read-out: MIC Acinetobacter baumannii (BAA1605)
Procedure: as §2, §3, §4, §5, §6

[13] = tested on: Klebsiella pneumonia (ATCC35657); assay: MIC testing against broad panel of strains; conditions: Klebsiella pneumoniae, ATCC35657, read-out: MIC Klebsiella pneumonia (ATCC35657)
Procedure: as §2, §3, §4, §5, §6

[14] = tested on: Mycobacterium tuberculosis; conditions: from WO 2008009700 / J. Med. Chem. 2014, 57, 4889-4905; cited from earlier work
[15] = tested on: S. aureus-ATCC 29213; conditions: from WO 2018172925; cited from earlier work
[16] = tested on: S. pnuemoniae ATCC6301; conditions: from WO 2018172925; cited from earlier work
[17] = tested on: Enterococcus Faecalis ATCC29212; conditions: from WO 2018172925; cited from earlier work
[18] = tested on: Moraxella catarrhalis ATCC8176; conditions: from WO 2018172925; cited from earlier work
[19] = tested on: E. coli ATCC 25922; conditions: from WO 2018172925; cited from earlier work
[20] = tested on: K pneumonia ATCC 700603; conditions: from WO 2018172925; cited from earlier work

SMILES | MIC [1] [µg/mL] | MIC [2] [µg/mL] | MIC [3] [µg/mL] | IC50 [4] [nM] | IC50 [5] [nM] | IC50 [6] [nM] | also measured
N#Cc1ccc2ccc(=O)n(CCN3CCC(NCc4ccc5c(c4)OCCO5)CC3)c2c1 [Example 1, 1-(2-(4-(((2,3-dihydrobenzo[b][1,4]dioxin-6-yl)methyl)amino)piperidin-1-yl)ethyl)-2-oxo-1,2-dihydroquinoline-7-carbonitrile] | 0.03 (≈ 0.0675 µM) | 0.5 (≈ 1.12 µM) | < 0.125 | 44 | 900 | > 30000 | 
N#Cc1ccc2ccc(=O)n(CCN3CCC(NCc4ccc5c(c4)NC(=O)CO5)CC3)c2c1 [Example 2, 2-oxo-1-(2-(4-(((3-oxo-3,4-dihydro-2H-benzo[b][1,4]oxazin-6-yl)methyl)amino)piperidin-1-yl)ethyl)-1,2-dihydroquinoline-7-carbonitrile] | 0.25 (≈ 0.546 µM) | 0.25 (≈ 0.546 µM) | < 0.125 | 3.4 | 1300 | > 10000 | 
N#Cc1ccc2ccc(=O)n(CCN3CCC(NCc4ccc5c(c4)NC(=O)CS5)CC3)c2c1 [Example 3, 2-oxo-1-(2-(4-(((3-oxo-3,4-dihydro-2H-benzo[b][1,4]thiazin-6-yl)methyl)amino)piperidin-1-yl)ethyl)-1,2-dihydroquinoline-7-carbonitrile] | 0.06 (≈ 0.127 µM) | 0.125 (≈ 0.264 µM) | < 0.125 | 3.2 | 300 | > 10000 | inhibition of Mycobacterium tuberculosis (in words) [7]: potent inhibition; MIC ([7]; Mycobacterium tuberculosis, H37RV, 96 well microtiter plates): 0.25 µM (≈ 0.118 µg/mL); MIC [8]: 0.125 µg/mL (≈ 0.264 µM); MIC [9]: 0.125 µg/mL (≈ 0.264 µM); MIC [10]: 0.5 µg/mL (≈ 1.06 µM); MIC [11]: 0.125 µg/mL (≈ 0.264 µM); MIC [12]: 0.25 µg/mL (≈ 0.528 µM); MIC [13]: 0.25 µg/mL (≈ 0.528 µM)
O=C1COc2ccc(CNC3CCN(CCn4c(=O)ccc5ccc(F)cc54)CC3)cc2N1 [Example 4, 6-(((1-(2-(7-fluoro-2-oxoquinolin-1(2H)-yl)ethyl)piperidin-4-yl)amino)methyl)-2H-benzo[b][1,4]oxazin-3(4H)-one] | < 0.125 | < 0.125 | < 0.125 | 6.9 | 400 | > 10000 | 
O=C1CSc2ccc(CNC3CCN(CCn4c(=O)ccc5ccc(F)cc54)CC3)cc2N1 [Example 5, 6-(((1-(2-(7-fluoro-2-oxoquinolin-1(2H)-yl)ethyl)piperidin-4-yl)amino)methyl)-2H-benzo[b][1,4]thiazin-3(4H)-one] | 0.25 (≈ 0.536 µM) | 0.25 (≈ 0.536 µM) | < 0.125 | 38.4 | 800 | > 10000 | 
N#Cc1ccc2ncc(=O)n(CCN3CCC(NCc4ccc5c(c4)NC(=O)CS5)CC3)c2c1 [Example 6, 3-oxo-4-(2-(4-(((3-oxo-3,4-dihydro-2H-benzo[b][1,4]thiazin-6-yl)methyl)amino)piperidin-1-yl)ethyl)-3,4-dihydroquinoxaline-6-carbonitrile] | < 0.125 | < 0.125 |  |  |  |  | 
N#Cc1ccc2ccc(=O)n(CCN3CCC(NCc4cc5c(cn4)OCCO5)CC3)c2c1 [Example 54] |  |  |  |  |  |  | MIC against Mycobacterium tuberculosis [14]: 1 µM (≈ 0.446 µg/mL)
Cc1ccc(CNC2CCN(CCn3c(=O)ccc4ccc(C#N)cc43)CC2)cc1[N+](=O)[O-] [VT-03-00065] |  |  |  |  |  |  | MIC S. aureus-ATCC 29213 [15]: 0.25 µg/mL (≈ 0.561 µM); MIC S. pnuemoniae ATCC6301 [16]: 4 µg/mL (≈ 8.98 µM); MIC Enterococcus Faecalis ATCC29212 [17]: > 32 µg/mL; MIC Moraxella catarrhalis ATCC8176 [18]: > 32 µg/mL; MIC E. coli ATCC 25922 [19]: > 32 µg/mL; MIC K pneumonia ATCC 700603 [20]: > 32 µg/mL

Source: US20210052597A1, “HETEROCYCLIC COMPOUNDS USEFUL AS ANTIBACTERIAL AGENTS” (CADILA HEALTHCARE LIMITED, priority 2018, published 2021)
